Laboratory results reported in article PMC5131364, “Pharmacologic modulation of RORγt translates to efficacy in preclinical and translational models of psoriasis and inflammatory arthritis” (Scientific Reports, 2016).
Read-outs that look alike come from different tables or passages of the source.

What was measured:
[1] = test system: CLA+ memory T cells / autologous epidermal cells from guttate psoriasis patients; experiment: Co-culture of human psoriatic CLA+ memory T cells with epidermal cells, streptococcal extract; format: cell-based
Source text: The study protocol was reviewed and subsequently approved by the Medical Ethics Committee of the Hospitals where the biopsies and blood were procured. All psoriasis donors in this study were required to be without disease-specific systemic therapy for at least 4 weeks or topical treatment for at least 2 weeks before the clinical samples were obtained. Circulating CLA^+/CLA^− CD45RO^+ CD3^+ cells and lesional epidermal cells were obtained from the same guttate psoriasis patient following the procedure described previously. In brief, memory T cell populations were isolated and enriched from peripheral blood lymphocytes by immunomagnetic separations. Epidermal cell suspensions were obtained from lesional biopsies by a dispase/trypsin treatment. The culture system was performed by seeding 50,000 circulating CLA^+ or CLA^− memory T cells with 30,000 autologous epidermal cells in a 96-flat bottom microwell plate (Nunc, Roskilde, Denmark) with culture medium (RPMI with 10% fetal calf serum). […] Cytokines in supernatants were quantified by multiplex fluorescent bead-based immunoassay, Diaclone DIAplex kit (Gen-Probe, Besançon, France), and data were collected with a F500 Flow Cytometer (Beckman Coulter, Fullerton, CA).

[2] = test system: IL-23-induced psoriasis-like ear skin inflammation in C57BL/6N mice; experiment: IL-23-induced skin inflammation in mice; format: in vivo, mouse; conditions: for reduction of IL-17A-producing total CD3+ T cells / reduction of IL-17A-producing γδ+ T cells: 30 mg/kg BID oral
[3] = test system: human CD4+ T cells under Treg polarizing conditions; experiment: Human Treg in vitro differentiation; format: cell-based; conditions: 6 days, 1 μM
Procedure: (§1) Mouse CD4+ T cell in vitro Th1 differentiation
(§2) Total CD4+ T cells were isolated from splenocytes of C57/BL6 mice (Chareles River Labrotory) using a CD4+ T cell isolation kit (Miltenyl Biotec, Auburn, CA), following the manufacturer’s instructions. Cells were resuspended in culture medium (described in Method section of Th17 differentiation) and were added to 96‐well plates at 2x10^5 per well. Titrated JNJ‐54271074 was added to each well at final DMSO concentration of 0.2%. Cells were incubated for 1 hour, after which Th1 cell differentiation medium was added with final concentrations of 1 µg/ml anti‐CD3, 5 µg/mL anti‐CD28 (BD Pharmingen, San Diego, CA), 10 µg/ml anti‐IL4, 10 ng/mL IL‐12, (R&D Systems, Minneapolis, MN). Cells were cultured at 37 °C and 5% CO2 for 3 days. Supernatants were collected and the accumulated cytokines in culture were measured by ELISA kits (R&D Systems, Minneapolis, MN) following manufacturers' instructions.
(§3) IL‐23 induced IL‐17A and IL‐22 production in mouse splenocytes splenocytes were isolated from C57/BL6 mice and resuspended in medium and cultured in 96‐well plates at […] per 100 µL per well. […] Supernatants were collected and the accumulated cytokines in culture were measured by ELISA according to the manufacturer’s instructions (IL‐17A kit from R&D systems, and IL‐22 from Biolegend San Diego). […]

mouse splenocytes = experiment: IL-23 induced IL-17A and IL-22 production in mouse splenocytes; format: cell-based; conditions: Splenocyte, 96 h, IL-23 and IL-2, 4 days
Procedure: as §1, §2, §3

[4] = 1 μM, SE-stimulated CLA+/epidermal cell co-culture, not statistically significant

COc1nc2ccc([C@@](O)(c3ccc(C)nc3C)c3cnnn3C)cc2c(Cl)c1Cc1ccc(C(F)(F)F)cc1 [JNJ-54271074]
TNFα and IL-8 production ([1]; 1 μM, SE-stimulated CLA+/epidermal cell co-culture): no effect
increase of IFNγ production [1, 4]: 64%
reduction of IL-6 [1, 4]: 32%
reduction of IL-17F production [1, 4]: 40%
decrease of IL-17A production ([1]; 1 μM, SE-stimulated CLA+/epidermal cell co-culture, vs DMSO, significant): 78%
IL-17A production in human cell co-culture model ([1]; discussion, in words): significant inhibition
skin inflammation (total skin histology scores, abscesses, acanthosis) ([2]; 3, 10, 30 and 60 mg/kg BID oral, 7 days, dose-dependent): decreased skin inflammation
ear mRNA expression of IL-17A, IL-22 and TNFα ([2]; 30 and 60 mg/kg, did not reach statistical significance): suppressed
reduction of IL-17A-producing total CD3+ T cells ([2]; DLNs): 71%
reduction of IL-17A-producing γδ+ T cells ([2]; DLNs): 43%
FOXP3+ CD4+ T cells populations, vehicle vs compound treated groups ([2]; ear skin and DLNs, 30 mg/kg BID): very similar
reduction of IL-17A-producing total CD3+ T cells ([2]; ear skin): 40%
reduction of IL-17A-producing γδ+ T cells ([2]; ear skin): 60%
ear mRNA expression of IL-17F, IFNγ and IL-6 ([2]; oral BID, 7 days): significantly inhibited
mRNA expression of FOXP3 [3]: slightly increased
percentage of FOXP3+ T cell [3]: no impact
IC50 (mouse splenocytes; no anti-CD3/anti-CD28, read-out: IC50, IL-23-stimulated IL-17A production): 19 nM
IC50 (mouse splenocytes; no anti-CD3/anti-CD28, read-out: IC50, IL-23-stimulated IL-22 production): 37 nM
